From paper PMC11418123, “Structure of a truncated human GlcNAc-1-phosphotransferase variant reveals the basis for its hyperactivity” (The Journal of Biological Chemistry, 2024)
Blank lines part the entries; values can stand above or below the molecule they belong to.

How the values were obtained:
S1S3 [1] = biological target: T1, S1S3 (Homo sapiens, UniProt Q3T906, H959F); assay: PTase activity assay, UDP-[3H]GlcNAc; format: biochemical; details: H279 = H959 of full-length hPTase
T1 construct: gene GNPTAB; soluble truncation, no TM domains; S1 (233 aa) replaced by 29-aa Dictyostelium discoideum PTase linker; Notch1 to S1P site deleted, GGSGG linker; melittin signal, N-HA, C-HPC4; secreted from T. ni cells; single chain, dimer

Dm PTase = biological target: T2, Dm PTase (Drosophila melanogaster, UniProt A1Z7S7); assay: PTase activity assay, UDP-[3H]GlcNAc; format: biochemical; details: donor, labelled compound; acceptor 100 mM α-MM
T2 construct: gene Gnptab; soluble, without N- and C-terminal TM domains and cytosolic tails; melittin signal, N-HA, C-HPC4; secreted from T. ni cells; single chain; H375 and F378 correspond to human H956 and H959
T2 sequence (A1Z7S7 47-630 limits assumed): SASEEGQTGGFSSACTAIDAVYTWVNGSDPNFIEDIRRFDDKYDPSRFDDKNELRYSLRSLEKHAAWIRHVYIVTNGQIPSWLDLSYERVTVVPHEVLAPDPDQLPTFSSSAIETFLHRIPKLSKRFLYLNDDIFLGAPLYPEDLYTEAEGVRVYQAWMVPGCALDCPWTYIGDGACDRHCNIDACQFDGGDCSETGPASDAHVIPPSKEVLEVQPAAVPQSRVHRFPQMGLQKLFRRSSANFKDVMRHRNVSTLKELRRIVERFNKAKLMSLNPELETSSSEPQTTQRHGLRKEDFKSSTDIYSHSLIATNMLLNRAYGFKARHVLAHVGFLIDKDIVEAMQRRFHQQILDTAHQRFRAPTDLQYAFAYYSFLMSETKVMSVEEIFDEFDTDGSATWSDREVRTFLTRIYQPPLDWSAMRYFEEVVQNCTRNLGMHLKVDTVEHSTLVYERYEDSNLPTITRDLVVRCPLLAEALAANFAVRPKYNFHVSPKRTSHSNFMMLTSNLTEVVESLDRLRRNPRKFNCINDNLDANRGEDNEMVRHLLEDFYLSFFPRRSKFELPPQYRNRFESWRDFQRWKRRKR

[2] = biological target: T3, hPTase-αβ (soluble full-length human GlcNAc-1-phosphotransferase) (Homo sapiens, UniProt Q3T906); assay: cryo-EM structure, […] Å; format: binding; details: 10 mM UDP-GlcNAc, 10 mM MnCl2, 6 h at 4 °C; donor site in the catalytic pocket with two Mn2+
T3 construct: gene GNPTAB; soluble secreted form of the alpha/beta precursor, cut by site-1 protease at K928/D929; no gamma subunit; dimer
T3 sequence (Q3T906 44-928 limits assumed): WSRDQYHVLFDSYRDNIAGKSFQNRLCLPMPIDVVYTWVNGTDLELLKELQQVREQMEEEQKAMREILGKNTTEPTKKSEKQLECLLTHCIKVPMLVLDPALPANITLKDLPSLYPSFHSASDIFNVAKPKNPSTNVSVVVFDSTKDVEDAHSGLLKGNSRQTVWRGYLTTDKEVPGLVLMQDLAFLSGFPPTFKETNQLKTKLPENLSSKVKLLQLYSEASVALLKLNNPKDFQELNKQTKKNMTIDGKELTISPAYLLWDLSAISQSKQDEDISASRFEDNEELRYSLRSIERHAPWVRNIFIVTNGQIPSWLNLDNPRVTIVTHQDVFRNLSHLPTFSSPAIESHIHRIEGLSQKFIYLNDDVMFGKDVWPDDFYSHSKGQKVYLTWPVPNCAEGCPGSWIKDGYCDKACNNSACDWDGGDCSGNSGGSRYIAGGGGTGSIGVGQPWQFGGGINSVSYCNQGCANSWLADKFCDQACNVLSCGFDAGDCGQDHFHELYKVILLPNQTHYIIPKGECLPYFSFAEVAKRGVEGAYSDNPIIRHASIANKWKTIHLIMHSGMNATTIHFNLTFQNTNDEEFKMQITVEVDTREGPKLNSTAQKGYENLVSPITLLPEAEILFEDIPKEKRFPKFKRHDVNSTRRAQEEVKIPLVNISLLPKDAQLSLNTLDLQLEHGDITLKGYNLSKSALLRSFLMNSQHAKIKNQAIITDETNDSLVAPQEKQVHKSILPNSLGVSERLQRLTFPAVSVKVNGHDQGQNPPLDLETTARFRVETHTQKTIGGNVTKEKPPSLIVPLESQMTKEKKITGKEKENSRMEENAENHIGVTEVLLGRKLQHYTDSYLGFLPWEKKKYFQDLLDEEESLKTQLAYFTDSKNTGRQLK
T3 sequence (Q3T906 929-1214 limits assumed): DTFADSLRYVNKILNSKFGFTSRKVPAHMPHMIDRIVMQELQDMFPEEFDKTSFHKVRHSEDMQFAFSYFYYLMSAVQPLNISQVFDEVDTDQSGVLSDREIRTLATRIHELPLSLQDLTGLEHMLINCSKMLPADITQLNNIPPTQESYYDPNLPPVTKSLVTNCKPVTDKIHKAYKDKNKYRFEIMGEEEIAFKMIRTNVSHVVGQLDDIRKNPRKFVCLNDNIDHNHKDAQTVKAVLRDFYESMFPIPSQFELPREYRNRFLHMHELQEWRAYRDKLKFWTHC

S1S3 [3] = biological target: T4, S1S3 (Homo sapiens, UniProt Q3T906); assay: UDP-[3H]GlcNAc radiolabel transfer assay, QAE-Sephadex; format: biochemical; details: saturating UDP-[3H]GlcNAc; Mn2+ and Mg2+, pH 7.4, 37 °C (general assay); mean of two assays
T4 construct: gene GNPTAB; soluble truncation, no TM domains; S1 (233 aa) replaced by 29-aa Dictyostelium discoideum PTase linker; Notch1 to S1P site deleted, GGSGG linker; melittin signal, N-HA, C-HPC4; secreted from T. ni cells; single chain, dimer

[4] = biological target: soluble S1S3, truncated hyperactive variant of human GlcNAc-1-phosphotransferase (PTase) αβ lacking both transmembrane domains and cytosolic tails (human | Dictyostelium discoideum); assay: cryo-EM structure; single-particle cryo-EM of purified soluble S1S3 at 0.8 mg/ml; 3.4 Å
[5] = substrate: CO[C@H]1O[C@H](CO)[C@@H](O)[C@H](O)[C@@H]1O; assay: UDP-[3H]GlcNAc radiolabel transfer assay, QAE-Sephadex; format: biochemical, Homo sapiens; details: saturating UDP-[3H]GlcNAc, Mn2+ and Mg2+, pH 7.4, 37 °C (general assay), mean of two assays

T1 sequence (Q3T906 929-1214 H959F limits assumed, one chain of several): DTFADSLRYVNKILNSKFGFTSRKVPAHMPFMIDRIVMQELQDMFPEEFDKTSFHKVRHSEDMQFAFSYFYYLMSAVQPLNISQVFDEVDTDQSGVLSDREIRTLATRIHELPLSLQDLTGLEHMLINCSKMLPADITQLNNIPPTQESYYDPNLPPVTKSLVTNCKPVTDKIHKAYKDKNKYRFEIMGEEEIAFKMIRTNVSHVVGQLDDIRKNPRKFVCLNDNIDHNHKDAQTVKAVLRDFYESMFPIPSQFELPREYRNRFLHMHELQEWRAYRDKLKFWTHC

Molecule: CC(=O)N[C@H]1[C@H](O[C@H]2[C@H](O)[C@@H](NC(C)=O)C(O)O[C@@H]2CO)O[C@H](CO)[C@@H](O[C@@H]2O[C@H](CO[C@H]3O[C@H](CO[C@H]4O[C@H](CO)[C@@H](O)[C@H](O)[C@@H]4O[C@H]4O[C@H](CO)[C@@H](O)[C@H](O)[C@@H]4O)[C@@H](O)[C@H](O[C@H]4O[C@H](CO)[C@@H](O)[C@H](O)[C@@H]4O[C@H]4O[C@H](CO)[C@@H](O)[C@H](O)[C@@H]4O)[C@@H]3O)[C@@H](O)[C@H](O[C@H]3O[C@H](CO)[C@@H](O)[C@H](O)[C@@H]3O[C@H]3O[C@H](CO)[C@@H](O)[C@H](O)[C@@H]3O[C@H]3O[C@H](CO)[C@@H](O)[C@H](O)[C@@H]3O)[C@@H]2O)[C@@H]1O (some centres unmarked) [Man-9, Man9GlcNAc2]
PTase activity assay, UDP-[3H]GlcNAc (S1S3 [1]; 0.34 mM Man-9): The His-279-Phe mutation caused a significant decrease in activity toward the three acceptors

Molecule: CC(=O)N[C@H]1[C@@H](OP(=O)(O)OP(=O)(O)OC[C@H]2O[C@@H](n3ccc(=O)[nH]c3=O)[C@H](O)[C@@H]2O)O[C@H](CO)[C@@H](O)[C@@H]1O [UDP-GlcNAc]
PTase activity assay, UDP-[3H]GlcNAc (Dm PTase): Dm PTase is capable of using UDP-GlcNAc as a nucleotide sugar donor
cryo-EM structure, 2.9 Å [2]: we resolved the cryo-EM structure of hPTase in the presence of the nucleotide donor sugar

Km (S1S3 [3]): 53.6 mM
Molecule: OC[C@H]1O[C@H](O[C@@H]2C(O)O[C@H](CO)[C@@H](O)[C@@H]2O)[C@@H](O)[C@@H](O)[C@@H]1O (stereo partly drawn) [mannobiose, 2-α-mannobiose]

Molecule: CO[C@H]1O[C@H](CO)[C@@H](O)[C@H](O)[C@@H]1O [α-MM, methyl α-D-mannopyranoside]
PTase activity assay, UDP-[3H]GlcNAc (S1S3 [1]; 100 mM α-MM): The His-279-Phe mutation caused a significant decrease in activity toward the three acceptors

stoichiometry N [4]: 2
Molecule: soluble S1S3, truncated hyperactive variant of human GlcNAc-1-phosphotransferase (PTase) αβ lacking both transmembrane domains and cytosolic tails (enzyme)

B1: hPTase-αβ (soluble full-length human GlcNAc-1-phosphotransferase) (Homo sapiens) (protein)
chain 1: T3 sequence (Q3T906 44-928 limits assumed)
chain 2: T3 sequence (Q3T906 929-1214 limits assumed)
notes: soluble secreted form of the alpha/beta precursor, cut by site-1 protease at K928/D929; no gamma subunit; dimer
Km [5]: 57,100 μM
kcat [5]: 0.153 s⁻¹
